Measured values as given in patent US6136831A, “Pyrazole derivatives and COX inhibitors containing them” (Grelan Pharmaceutical Co., Ltd., priority 1997, dated 2000).

What was measured:
COX-1 = target: T1, COX-1 (Ovis aries, UniProt P05979); assay: Inhibitory Activity on COX-1 (Assay Example 5); assay type: biochemical; settings: Table 4; read-out: COX Inhibiting Activity IC50, COX-1
T1 construct: purchased Cayman Chemical Co
T1 sequence (P05979 25-600): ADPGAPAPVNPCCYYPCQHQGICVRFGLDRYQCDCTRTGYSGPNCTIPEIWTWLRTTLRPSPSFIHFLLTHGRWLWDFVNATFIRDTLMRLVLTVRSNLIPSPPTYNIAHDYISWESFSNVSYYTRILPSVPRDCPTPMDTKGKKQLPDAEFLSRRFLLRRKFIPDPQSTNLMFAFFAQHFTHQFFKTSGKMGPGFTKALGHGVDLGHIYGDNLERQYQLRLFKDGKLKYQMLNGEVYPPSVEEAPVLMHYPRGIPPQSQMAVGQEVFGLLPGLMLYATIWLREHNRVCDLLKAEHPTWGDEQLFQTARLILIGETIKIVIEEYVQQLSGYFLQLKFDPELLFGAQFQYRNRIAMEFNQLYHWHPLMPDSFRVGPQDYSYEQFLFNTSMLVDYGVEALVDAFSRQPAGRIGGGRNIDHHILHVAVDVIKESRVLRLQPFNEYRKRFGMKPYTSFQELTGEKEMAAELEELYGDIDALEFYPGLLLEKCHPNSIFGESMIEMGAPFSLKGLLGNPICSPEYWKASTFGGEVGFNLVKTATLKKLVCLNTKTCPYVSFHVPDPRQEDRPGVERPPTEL

COX-2 = target: T2, COX-2 (Ovis aries, UniProt P79208); assay: Inhibitory Activity on COX-2 (Assay Example 5); assay type: biochemical; settings: Table 4; for IC50: read-out: COX Inhibiting Activity IC50, COX-2
T2 construct: purchased Cayman Chemical Co
T2 sequence (P79208 17-603): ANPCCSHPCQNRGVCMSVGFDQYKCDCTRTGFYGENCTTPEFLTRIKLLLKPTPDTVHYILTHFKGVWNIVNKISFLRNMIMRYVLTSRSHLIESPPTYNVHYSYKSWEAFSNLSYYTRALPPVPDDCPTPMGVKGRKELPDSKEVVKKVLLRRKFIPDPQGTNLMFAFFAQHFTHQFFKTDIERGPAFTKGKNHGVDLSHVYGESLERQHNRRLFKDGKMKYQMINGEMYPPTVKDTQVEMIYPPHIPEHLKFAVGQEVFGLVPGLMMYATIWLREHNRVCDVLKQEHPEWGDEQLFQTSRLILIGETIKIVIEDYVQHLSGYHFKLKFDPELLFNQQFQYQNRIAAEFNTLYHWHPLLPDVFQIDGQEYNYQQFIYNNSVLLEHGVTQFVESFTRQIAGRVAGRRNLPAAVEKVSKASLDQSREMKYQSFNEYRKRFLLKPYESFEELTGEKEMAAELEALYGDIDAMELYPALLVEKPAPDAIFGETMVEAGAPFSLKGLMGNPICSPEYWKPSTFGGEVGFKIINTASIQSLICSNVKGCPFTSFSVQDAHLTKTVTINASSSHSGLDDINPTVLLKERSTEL

[1] = tested on: rat adjuvant-induced arthritis; assay: Inhibitory Action on Adjuvant Arthritis (1) (Assay Example 2); assay type: in vivo, male Fisher rats; settings: oral 5 mg/kg
Protocol: Dry Mycobacterium butyricum killed organisms (Difco) were suspended in liquid paraffin to make the concentration 1% and the resulting suspension used as an adjuvant. The adjuvant (50 μl) was subplantarly injected to the right hind paw of male Fisher rats (5 to 6 animals per group) to raise arthritis. Each test compound was suspended in a 0.5% aqueous sodium carboxymethylcellulose (CMC-Na) solution and orally administered to the rats at a dose of 5 mg/kg on days 0, 3, 7, 10, 14, 17 and 20 (7 times in total) after the arthritis induction. On the 21st disease day the rats were measured for their body weight and the edema of their right and left hind paws. Simultaneously, systemic inflammatory states were scored. In addition, each of their spleen and thymus was taken out by excision to measure their wet weight and their relative weight per 100 g body weight was calculated.

[2] = tested on: adjuvant arthritis in rats; assay: Inhibitory Action on Adjuvant Arthritis (2) (Assay Example 6); assay type: in vivo, male F344/Du (Fisher) rats; settings: oral 1 mg/5 ml/kg daily, 17 days; for % Inhibition against Reduction of Gain in Body Weight / Edema Inhibition (%) Left Hind Paw (Non-inflamed Paw) / Edema Inhibition (%) Right Hind Paw (Inflamed Paw): measured next day; for % Inhibition against Change in Relative Weight, Spleen / % Inhibition against Change in Relative Weight, Thymus: relative weight per 100 g body weight; for Inflammation Score Inhibition (%): scored next day
Protocol: A 1% dry Mycobacterium tuberculosis H37 RA killed organism suspension in liquid paraffin was employed as an adjuvant. The adjuvant suspension (50 μl) was subplantarly administered to the right hind paw of male F344/Du (Fisher) rats (5 to 6 animals per group) to raise arthritis. […] The next day after the final administration, the rats were measured for their body weight and the edema of their right and left hind paws. Simultaneously, systemic inflammatory states were scored. In addition, each of their spleen and thymus was taken out by excision to measure their wet weight and their relative weight per 100 g body weight was determined.

[3] = 7 times, relative weight per 100 g body weight, day 21
[4] = days 0, 3, 7, 10, 14, 17, 20, measured day 21

Structure (SMILES) | IC50 (COX-1) [nM] | COX-1/COX-2 (ratio of IC50 values) (COX-2) | IC50 (COX-2) [nM] | further results
Cc1ccc2nc(-c3cc(C(F)(F)C(F)(F)F)nn3-c3ccc(S(C)(=O)=O)cc3)sc2c1 [Example 32, 6-Methyl-2-[1-(4-methylsulfonylphenyl)-3-pentafluoroethyl-1H-pyrazol-5-yl]benzothiazole] | > 100000 | > 270 | 370 | 
CS(=O)(=O)c1ccc(-n2nc(C(F)(F)F)cc2-c2nc3cc(F)ccc3s2)cc1 [Example 4, 5-Fluoro-2-[1-(4-methylsulfonylphenyl)-3-trifluoromethyl-1H-pyrazol-5-yl]benzothiazole] |  |  |  | % Inhibition against Change in Relative Weight, Spleen [1, 3]: 2.9%; % Inhibition against Change in Relative Weight, Thymus [1, 3]: 148.9%; % Inhibition against Reduction of Gain in Body Weight [1, 4]: 78.7%; Edema Inhibition (%) Left Hind Paw (Non-inflamed Paw) [1, 4]: 91%; Edema Inhibition (%) Right Hind Paw (Inflamed Paw) [1, 4]: 83%; Inflammation Score Inhibition (%) ([1]; days 0, 3, 7, 10, 14, 17, 20, scored day 21): 100%
NS(=O)(=O)c1ccc(-n2nc(C(F)(F)F)cc2-c2nc3cccc(F)c3s2)cc1 [Example 18, 4-[5-(7-Fluorobenzothiazol-2-yl)-3-trifluoromethyl-1H-pyrazol-1-yl]benzenesulfonamide] | > 100000 | > 625 | 160 | % Inhibition against Reduction of Gain in Body Weight [2]: 75%; Edema Inhibition (%) Left Hind Paw (Non-inflamed Paw) [2]: 116%; Edema Inhibition (%) Right Hind Paw (Inflamed Paw) [2]: 84%; % Inhibition against Change in Relative Weight, Spleen [2]: 48%; % Inhibition against Change in Relative Weight, Thymus [2]: 48%; Inflammation Score Inhibition (%) [2]: 91%
CS(=O)(=O)c1ccc(-n2nc(C(F)F)cc2-c2nc3ccc(F)cc3s2)cc1 [Example 22, 6-Fluoro-2-[1-(4-methylsulfonylphenyl)-3-difluoromethyl-1H-pyrazol-5-yl]benzothiazole] | > 100000 | > 2000 | 50 | 
COc1ccc2nc(-c3cc(C(F)F)nn3-c3ccc(S(N)(=O)=O)cc3)sc2c1 [Example 25, 4-[3-Difluoromethyl-5-(6-methoxybenzothiazol-2-yl)-1H-pyrazol-5-yl]benzenesulfonamide] | > 100000 | > 250 | 400 | 
CS(=O)(=O)c1ccc(-n2nc(C(F)(F)F)cc2-c2nc3cccc(F)c3s2)cc1 [Example 17, 7-fluoro-2-[1-(4-methylsulfonylphenyl)-3-trifluoromethyl-1H-pyrazol-5-yl]benzothiazole] | > 100000 | > 625 | 160 | 
NS(=O)(=O)c1ccc(-n2nc(C(F)F)cc2-c2nc3cccc(F)c3s2)cc1 [Example 29, 4-[5-(7-Fluorobenzothiazol-2-yl)-3-difluoromethyl-1H-pyrazol-1-yl]benzenesulfonamide] | > 100000 | > 8333 | 12 | % Inhibition against Reduction of Gain in Body Weight [2]: 73%; Edema Inhibition (%) Left Hind Paw (Non-inflamed Paw) [2]: 124%; Edema Inhibition (%) Right Hind Paw (Inflamed Paw) [2]: 82%; % Inhibition against Change in Relative Weight, Spleen [2]: 25%; % Inhibition against Change in Relative Weight, Thymus [2]: 80%; Inflammation Score Inhibition (%) [2]: 86%
NS(=O)(=O)c1ccc(-n2nc(C(F)F)cc2-c2nc3c(F)cccc3s2)cc1 [Example 41] | > 100000 | > 417 | 240 | 
Cc1cccc2nc(-c3cc(C(F)F)nn3-c3ccc(S(N)(=O)=O)cc3)sc12 [Example 31, 4-[3-Difluoromethyl-5-(7-methylbenzothiazol-2-yl)-1H-pyrazol-1-yl]benzenesulfonamide] | > 100000 | > 417 | 240 | 
NS(=O)(=O)c1ccc(-n2nc(C(F)F)cc2-c2nc3ccc(F)cc3s2)cc1 [Example 23, 4-[5-(6-Fluorobenzothiazol-2-yl)-3-difluoromethyl-1H-pyrazol-1-yl]benzenesulfonamide] | > 100000 | > 909 | 110 | 
CS(=O)(=O)c1ccc(-n2nc(C(F)F)cc2-c2nc3cccc(F)c3s2)cc1 [Example 28, 7-Fluoro-2-[1-(4-methylsulfonylphenyl)-3-difluoromethyl-1H-pyrazol-5-yl]benzothiazole] | > 100000 | > 1190 | 84 | 
NS(=O)(=O)c1ccc(-n2nc(C(F)F)cc2-c2nc3ccccc3s2)cc1 [Example 21, 4-[5-(Benzothiazol-2-yl)-3-difluoromethyl-1H-pyrazol-1-yl]-benzenesulfonamide] | 22000 | 386 | 57 | 
NS(=O)(=O)c1ccc(-n2nc(C(F)F)cc2-c2nc3ccc(Cl)cc3s2)cc1 [Example 24, 4-[5-(6-Chlorobenzothiazol-2-yl)-3-difluoromethyl-1H-pyrazol-1-yl]benzenesulfonamide] | 1800 | 21 | 86 | 
Cc1ccc2nc(-c3cc(C(F)F)nn3-c3ccc(S(N)(=O)=O)cc3)sc2c1 [Example 27] | 33000 | 623 | 53 | 
Cc1ccc2nc(-c3cc(C(F)(F)F)nn3-c3ccc(S(N)(=O)=O)cc3)sc2c1 [Example 16, 4-[5-(6-Methylbenzothiazol-2-yl)-3-trifluoromethyl-1H-pyrazol-5-yl]benzenesulfonamide] | > 100000 | > 172 | 580 | 
NS(=O)(=O)c1ccc(-n2nc(C(F)(F)F)cc2-c2nc3ccccc3s2)cc1 [Example 14, 4-[5-(Benzothiazol-2-yl)-3-trifluoromethyl-1H-pyrazol-1-yl]-benzenesulfonamide] | > 100000 | > 1786 | 56 | 
Cc1ccc2nc(-c3cc(C(F)(F)C(F)(F)F)nn3-c3ccc(S(N)(=O)=O)cc3)sc2c1 [Example 33, 4-[5-(6-Methylbenzothiazol-2-yl)-3-pentafluoroethyl-1H-pyrazol-5-yl]benzenesulfonamide] | > 100000 | > 769 | 130 | 
Cc1ccc2nc(-c3cc(C(F)F)nn3-c3ccc(S(C)(=O)=O)cc3)sc2c1 [Example 26, 6-Methyl-2-[1-(4-methylsulfonylphenyl)-3-difluoromethyl-1H-pyrazol-5-yl]benzothiazole] | > 100000 | > 769 | 130 | 
